In publication PMC11352370, “Live Cell Monitoring of Phosphodiesterase Inhibition by Sulfonylurea Drugs” (Biomolecules, 2024):

Test system: T1, PDE3B
T1 construct: Epac2-camps-PDE3B fusion biosensor
Experiment: live-cell FRET with Epac-camps/PDE3B fusion biosensors in HEK293a cells
Type: cell-based

IC50: ~700 µM
Structure (SMILES): CCCCNC(=O)NS(=O)(=O)c1ccc(C)cc1 [TOL, tolbutamide]
